In experiment [1] the target is T1, α2A adrenergic receptor (α2AAR) (Mus musculus, UniProt Q01338).
T1 sequence (Q01338 1-465): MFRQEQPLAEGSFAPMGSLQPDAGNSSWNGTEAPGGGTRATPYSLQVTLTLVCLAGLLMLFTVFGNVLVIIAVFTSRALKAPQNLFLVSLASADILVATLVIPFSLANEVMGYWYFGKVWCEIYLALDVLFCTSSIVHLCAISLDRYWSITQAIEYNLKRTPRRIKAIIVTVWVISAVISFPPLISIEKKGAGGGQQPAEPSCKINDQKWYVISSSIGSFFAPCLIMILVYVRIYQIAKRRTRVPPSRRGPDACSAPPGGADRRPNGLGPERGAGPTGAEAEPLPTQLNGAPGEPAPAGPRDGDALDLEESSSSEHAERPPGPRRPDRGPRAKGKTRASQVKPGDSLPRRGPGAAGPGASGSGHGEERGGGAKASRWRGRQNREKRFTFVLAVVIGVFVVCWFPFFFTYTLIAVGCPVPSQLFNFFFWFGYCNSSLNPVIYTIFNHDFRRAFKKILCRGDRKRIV
Nature of the experiment: competition radioligand binding with 3H-RX821002.

The target of experiment [2] is T1, α2A adrenergic receptor (α2AAR). Nature of the experiment: […]GTPγS binding, […] NE, nearly two-fold induction. Format: cell-based.
The target is the same in experiment [3]. Nature of the experiment: radioligand of the competition binding assay.

As usually defined, the Ki is the equilibrium dissociation constant of an inhibitor or competing ligand from its target.

In turn, `CN(C)CCC=C1c2ccccc2CCc2ccccc21` [AMI, amitriptyline] had a Ki in experiment [1] of 0.33 µM.
Turning to `CN(C)CCC[C@@]1(c2ccc(F)cc2)OCc2cc(C#N)ccc21` [ESC, escitalopram], the Ki in experiment [1] was found to be 79.4 µM.
Turning to `CN(C)CCCN1c2ccccc2CCc2ccccc21` [IMI, imipramine], in experiment [1], affinity was put at a Ki of 5.07 µM.
Take `NC[C@H](O)c1ccc(O)c(O)c1` [NE, norepinephrine]: the “[35S]GTPγS binding, 10 μM NE, nearly two-fold induction” value in experiment [2] was “G protein coupling response by α2AARs is seen only in response the endogenous agonist NE, which drives a nearly two-fold induction”.
As to `COC1(C2=NCCN2)COc2ccccc2O1` (centres unmarked) [RX821002], in experiment [3], the “radioligand of the competition binding assay” value is on record as “the radioligand was a ^3H-labeled form of the α2AR antagonist RX821002”.

These data come from paper PMC4150853 (Biochemical and biophysical research communications, 2014).
